# Measured values from US9101567B2, “Suppression of cancer growth and metastasis using nordihydroguaiaretic acid derivatives with 7-hydroxystaurosporine” (The Johns Hopkins University, priority 2010, dated 2015).
# Values joined by “and” are separate entries in the source; they are usually repeats but may differ in a detail not shown here. Equal entries are not always repeated.
# Legend:
# [1] = tested on: OC24 human ovarian cancer cells; test: OC24 ovarian cancer-bearing nude mice: survival, ascites fluid, abdominal tumors; assay type: in vivo, nude mice (nu/nu); details: for survival rate at 45 days after treatment: OC24 tumor-bearing nude mice, i.v. 1 mg M4N and/or 88.4 μg UCN-01 per shot; for Tumor Weight: abdominal tumors of individual OC24 tumor-bearing mice; for Tumor Weight / Weight of the Ascites Fluid: at the time of death; for Weight of the Ascites Fluid: individual OC24 tumor-bearing mice, data compiled at 45 days after tumor inoculation
# Protocol: (§1) T-cell deficient male nude mice (nu/nu) were obtained from Charles River Laboratories (Wilmington, Mass.). […] For drug combinations (M4N/etoposide, M4N/rapamycin, and M4N/UCN-01), etoposide, rapamycin, or UCN-01 powder was further added to M4N in CPE 25/30 to make a final concentration of M4N (10 mg/ml) respectively with etoposide (4 mg/ml), rapamycin (3.75 mg/ml), or UCN-01 ([…]) in CPE 25/30 formulation. These drugs were intravenously injected into the tail vein of mice at the daily dose of 0.1 ml per mouse. Therefore dosages of each injection were 1 mg/shot (for M4N), 0.4 mg/shot (for etoposide), 0.375 mg/shot (for rapamycin), and 88.4 μg/shot (for UCN-01). The drug injections were performed once every day; beginning at day 3 until day 31 after tumor inoculation for the combination treatment with either etoposide or rapamycin and until day 25 after tumor inoculation for the combination treatment with UCN-01. After this the drugs were injected once a week for etoposide/rapamycin combination treatment and once every three days until day 35 for UCN-01 combination treatment. Protocols used in this study were approved by the Institutional Animal Care and Use Committee at the Johns Hopkins University, Department of Biology.
# (§2) OC24 cells growing subconfluently were collected into the tissue culture medium without fetal bovine serum and antibiotics. The cell concentration was adjusted by the same medium. The cell solution containing 5×10^4 cells was injected into the peritoneal cavity of each nude mouse at the day 0. The drug treatment started from day 3. For the estimation of the effect of the drug treatment, the volume of ascites fluids and of abdominal tumors was measured.
# Next we examined if this combination treatment could improve the anticancer efficacy of M4N in animal experiments. In this experiment we used OC24 ovarian cancer-bearing nude mice as a model system. OC24 cells are very aggressive cancers and have the ability to kill essentially all the mice when only ten thousand cancer cells are inoculated intraperitoneally into a mouse. […] All the mice without any treatments died in less than 26 days after the tumor inoculation. Meanwhile certain percentages of the mice survived in the all treatment groups (M4N alone, UCN-01 alone, or M4N/UCN-01 combination) beyond 45 days after treatment (the time of preparation of the current manuscript). The survival rate at 45 days after treatment was 33%, 20%, and 42% for M4N alone, UCN-01 alone, or M4N/UCN-01 combination group respectively.
# To further evaluate the anticancer efficacy of M4N/UCN-01 combination treatment, we next measured the volume of the ascites fluid and that of abdominal tumors. The ascites fluid was collected from the peritoneal cavity at the time of death of tumor-bearing mice. Abdominal tumors are usually located in the vicinity of the area where the tumors were inoculated by the needle. […] The data was compiled at 45 days after tumor inoculation. Therefore there were still several mice who still survived from tumor burden.
# [2] = Body weight change in OC24 tumor-bearing mice; assay type: in vivo, nude mice (nu/nu); details: individual mice
# Protocol: as §1, §2
# Once the ascites fluid starts to accumulate in the peritoneal cavity, it sometimes constitutes a significant portion of the body weight.
# The increase of the body weight of deceased mice at the time of the death over the initial weight was 37.8% (SD=18.9%, N=19) while the increase of the body weight of alive mice at days after tumor inoculation over the initial weight was 9.5% (SD=7.5%, N=6). The difference of two groups is statistically significant by t-test (0.2%). […] Therefore the body weight change can be used as an indicator to estimate the volume of ascites and thus overall condition of the mice. […] The body weight increased slightly after day 26. However it hasn't reached the peak weight achieved at day 22 (30.5 g). […] The pictures show the apparent decrease of the volume of abdominal area from day 22 to day 29 through day 26. This almost certainly indicated the reduction of ascites fluid. […] The observations depicted in FIGS. 8 B and 8C indicate that the combination treatment of M4N with UCN-01 can suppress tumor burden even after the tumor size has already reached to a certain extent. Discussion
# [3] = tested on: caspase-7; test: Western blotting of caspase-7 cleavage in LNCaP cells; assay type: cell-based, human; details: 17 hrs, M4N 80 μM, etoposide 10 μM, rapamycin 10 μM, UCN-01 2 μM
# Protocol: (§3) The sample volumes were adjusted by the total protein amount. Protein assay was performed by Bio-Rad Protein Assay (Bio-Rad Laboratories, Inc. Hercules, Calif.). The samples were resolved by the standard SDS-polyacrylamide gel electrophoresis and transferred to nitrocellulose membrane (Amersham Biosciences, Bjorkgatan, Sweden). The membranes were blocked with skim milk, and incubated with primary antibodies at 4° C. overnight and then with secondary antibody conjugated with horse radish peroxidase at room temperature for 2 hrs. The signals were detected by western blot chemiluminescence reagent plus (New England Nuclear Life Science Products, Boston, Mass.).
# (§4) The efficacy of the combination treatment of M4N with three anticancer drugs, etoposide, rapamycin, and UCN-01 to induce cell death was examined for LNCaP human prostate cancer cells with TUNEL assay. We chose these anticancer drugs trying to diversify the mechanisms in which the anticancer drugs work (43-45). […] Additionally the effect of caspase-3 and 7 inhibitor, zDEVD-fmk on the cell death induced by the combination treatment was examined (FIG. 1E).
# [4] = tested on: caspase-3 and 9; test: Western blotting of cleaved caspase-3 and 9 in LNCaP cells; assay type: cell-based, human; details: 17 hrs, M4N 80 μM, etoposide 10 μM, rapamycin 10 μM, UCN-01 2 μM
# Protocol: as §3, §4
# [5] = tested on: caspase-7; test: Enzymatic assay for caspase-7 in extracts of treated LNCaP cells; assay type: cell-based, human; details: extracts of LNCaP cells treated for 13 hrs
# Protocol: The enzymatic assay specific for caspase-7 was performed using a CaspSELECT caspase-7 immunoassay kit (BioVision, Mountain View, Calif.). This assay is based on the […] assay with DEVD-afc. Since DEVD-afc can be a substrate for either caspase-3 or 7, only caspase-7 is selected from cell extracts by anti-caspase-7 antibody which is coated on microtiter plates. Briefly the microtiter plates were coated with anti-caspase-7 antibody overnight at 4 C and blocked with a blocking solution for 30 minutes at room temperature. The cell extracts were applied to the microtiter plates. After washing the microtiter plates, the substrate […] was added to the plates and incubated for about three hours. The fluorescence was measured by a microtiter plate fluorescence reader Infinite 200 (Tecan, Switzerland).
# as §4
SMILES,survival rate at 45 days after treatment [1] [%],Tumor Weight [1],Weight of the Ascites Fluid [1],Body weight ([2]; Day No. 0 (10-Dec)),Body weight ([2]; Day No. 2 (12-Dec)),Body weight ([2]; Day No. 3 (13-Dec)),Body weight ([2]; Day No. 8 (18-Dec)),Body weight ([2]; Day No. 12 (22-Dec)),Body weight ([2]; Day No. 22 (1-Jan)),Body weight ([2]; Day No. 26 (5-Jan)),Body weight ([2]; Day No. 29 (8-Jan)),Body weight ([2]; Day No. 32 (11-Jan)),Body weight ([2]; Day No. 33 (12-Jan)),Body weight ([2]; Day No. 34 (13-Jan)),Body weight ([2]; Day No. 35 (14-Jan)),Body weight ([2]; Day No. 36 (15-Jan)),Body weight ([2]; Day No. 37 (16-Jan)),Body weight ([2]; Day No. 38 (17-Jan)),Body weight ([2]; Day No. 39 (18-Jan)),Body weight ([2]; Day No. 40 (19-Jan)),also measured
"CN[C@@H]1C[C@H]2O[C@@](C)([C@@H]1OC)n1c3ccccc3c3c4c(c5c6ccccc6n2c5c31)C(=O)N[C@H]4O [UCN-01, 7-hydroxystaurosporine]",20,No Tumor (2×) and 360.5 mg and 87 mg,7.4 g and 15 g and Living and 14.3 g and 2.9 g,22.8 grams and 22.1 grams and 23.4 grams and 21.6 grams and 19.6 grams and 20.6 grams,22.6 grams (2×) and 18.3 grams and 20.8 grams,23.4 grams and 21.8 grams and 35.7 grams and 30.5 grams and 22.9 grams and 21.9 Died due to injection & not the tumor (28th Dec) grams,39.5 grams and 35.9 grams and 26.2 grams,24.4 grams and 30.7 grams and 38.4 (6th Jan) grams and 27.3 grams,24.8 grams and 29.5 grams,25.5 grams,27.9 grams,27.6 grams,27.4 grams,27.5 grams,26.5 grams,27.2 grams,27.3 grams,27.1 grams,27.4 grams,27.4 grams,Body weight ([2]; Day No. 41 (20-Jan)): 27.8 grams; Body weight ([2]; Day No. 42 (21-Jan)): 26.7 grams; Body weight ([2]; column head Day No. 18 (28-Dec)): 22.5 grams; caspase-7 cleavage products (20 and 34 kDa) [3]: great amount; expression of cleaved caspase-3 and 9 [4]: great expression; caspase-7 activation (enzymatic activity) [5]: to some extent
"COc1ccc(C[C@@H](C)[C@@H](C)Cc2ccc(OC)c(OC)c2)cc1OC [M4N, Tetra-O-methyl nordihyroguaiaretic acid]",33,101.3 mg and <100 mg and 360.5 mg and 69 mg,4.4 g and Living (2×) and 7.8 g and 5.8 g and 16.1 g,24.1 grams and 22.9 grams and 23.5 grams and 22.3 grams and 20 grams and 21.4 grams,22.3 grams and 20.8 grams and 22.9 grams and 21.5 grams and 19.1 grams and 20.9 grams,22.8 grams and 21.2 grams and 23.4 grams and 20.9 grams and 20.2 grams and 20.5 grams,30.1 grams and 25.8 (31st Dec) grams,23.9 grams and 21.9 grams and 27.7 grams (2×) and 29.8 (Euthanized on 1st Jan) grams,23.2 grams and 21.5 grams and 28 grams and 38.8 grams,24.1 grams and 22.5 grams and 28.1 grams,26.2 grams and 22.7 grams,25.5 grams and 22.5 grams,25.3 grams and 23.1 grams,25.3 grams and 22.9 grams,24.8 grams and 22 grams,25.7 grams and 22.4 grams,25.8 grams and 22.6 grams,25.9 grams and 22.9 grams,26.3 grams and 22.7 grams,26.4 grams and 22.9 grams,Body weight ([2]; Day No. 41 (20-Jan)): 26.4 grams and 23.1 grams; Body weight ([2]; Day No. 42 (21-Jan)): 25.3 grams and 23.2 grams; Body weight ([2]; column head Day No. 25 (4-Jan)): 37.5 grams; Body weight ([2]; column head Day No. 28 (7-Jan)): 27.9 grams; caspase-7 cleavage products (20 and 34 kDa) [3]: small amount; expression of cleaved caspase-3 and 9 [4]: didn't induce the cleavage; caspase-7 activation (enzymatic activity) [5]: only a small amount
